Test results published in ChEMBL document CHEMBL4334524, “Discovery of Highly Polar β-Homophenylalanine Derivatives as Nonsystemic Intestine-Targeted Dipeptidyl Peptidase IV Inhibitors” (J Med Chem, 2019).

System: not listed separately
Assay: Stability in human intestinal S9 fractions assessed as phase I and phase II enzymes-mediated generation of systemic metabolites at 0.1 uM incubated at 37 degC for 10 mins by LC-MS/MS analysis
Assay type: ADME, subcellular, Intestine, S9 fraction
Details: s9, 10 min

Stability	SMILES
Unstable	O=c1ccc2ccc(O)cc2o1 [UMBELLIFERONE]

System: not listed separately
Assay: Efflux ratio in human Caco2 cells at 20 uM incubated for […] by LC-MS/MS analysis
Assay type: ADME, cell-based
Details: Caco-2

SMILES	efflux ratio at […], 20 µM
N[C@@H](CC(=O)NC1(c2nc3ccc(OCC(=O)NC[C@H](O)[C@@H](O)[C@@H](O)[C@H](O)CO)cc3s2)CCS(=O)(=O)CC1)Cc1cc(F)c(F)cc1F.O=C(O)C(F)(F)F	0.05
C[N+](C)(C)CCNC(=O)CCCCCOc1ccc2nc(C3(NC(=O)C[C@H](N)Cc4cc(F)c(F)cc4F)CCS(=O)(=O)CC3)sc2c1.O=C(O)C(F)(F)F.O=C([O-])C(F)(F)F	6

System: not listed separately
Assay: Solubility in pH 7.0 buffer by nephelometry
Assay type: physicochemical
Details: not given

SMILES	solubility kinetic
N[C@@H](CC(=O)NC1(c2nc3ccc(OCC(=O)NC[C@H](O)[C@@H](O)[C@@H](O)[C@H](O)CO)cc3s2)CCS(=O)(=O)CC1)Cc1cc(F)c(F)cc1F.O=C(O)C(F)(F)F	> 50 µM
C[N+](C)(C)CCNC(=O)CCCCCOc1ccc2nc(C3(NC(=O)C[C@H](N)Cc4cc(F)c(F)cc4F)CCS(=O)(=O)CC3)sc2c1.O=C(O)C(F)(F)F.O=C([O-])C(F)(F)F	> 50 µM

Target: Dipeptidyl peptidase 4 (Mus musculus, UniProt P28843)
Assay: Inhibition of DPP4 in C57BL/6 mouse serum pre-incubated for 5 mins followed by Gly-Pro-7-AMC substrate addition by fluorescence based assay
Assay type: cell-free
Details: not given

Sequence of Dipeptidyl peptidase 4 (P28843 whole entry): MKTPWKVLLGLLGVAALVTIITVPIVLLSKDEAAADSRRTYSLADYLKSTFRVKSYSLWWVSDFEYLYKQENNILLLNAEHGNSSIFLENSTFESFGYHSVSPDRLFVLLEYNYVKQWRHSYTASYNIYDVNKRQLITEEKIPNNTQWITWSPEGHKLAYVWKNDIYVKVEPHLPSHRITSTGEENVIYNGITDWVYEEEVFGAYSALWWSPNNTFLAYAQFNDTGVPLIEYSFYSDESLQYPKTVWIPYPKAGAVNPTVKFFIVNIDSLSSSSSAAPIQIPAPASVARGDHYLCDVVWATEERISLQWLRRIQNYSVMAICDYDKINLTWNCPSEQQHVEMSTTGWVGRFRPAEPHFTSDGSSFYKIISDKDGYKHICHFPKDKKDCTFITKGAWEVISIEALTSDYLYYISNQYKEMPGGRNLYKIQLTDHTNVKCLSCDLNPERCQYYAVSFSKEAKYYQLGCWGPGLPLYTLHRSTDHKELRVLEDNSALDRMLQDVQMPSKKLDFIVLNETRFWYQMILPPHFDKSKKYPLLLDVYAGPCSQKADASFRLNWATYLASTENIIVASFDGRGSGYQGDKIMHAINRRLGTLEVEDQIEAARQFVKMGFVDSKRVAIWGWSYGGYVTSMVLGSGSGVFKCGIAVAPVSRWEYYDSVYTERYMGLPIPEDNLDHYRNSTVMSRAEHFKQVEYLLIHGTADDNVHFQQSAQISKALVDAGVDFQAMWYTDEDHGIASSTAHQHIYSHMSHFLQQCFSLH

SMILES	IC50
N[C@@H](CC(=O)NC1(c2nc3ccc(OCC(=O)NC[C@H](O)[C@@H](O)[C@@H](O)[C@H](O)CO)cc3s2)CCS(=O)(=O)CC1)Cc1cc(F)c(F)cc1F.O=C(O)C(F)(F)F	2.2 nM
C[N+](C)(C)CCNC(=O)CCCCCOc1ccc2nc(C3(NC(=O)C[C@H](N)Cc4cc(F)c(F)cc4F)CCS(=O)(=O)CC3)sc2c1.O=C(O)C(F)(F)F.O=C([O-])C(F)(F)F	3 nM

System: not listed separately
Assay: Solubility in pH 6.8 buffer by nephelometry
Assay type: physicochemical
Details: not given

SMILES	solubility kinetic
N[C@@H](CC(=O)NC1(c2nc3ccc(OCC(=O)NC[C@H](O)[C@@H](O)[C@@H](O)[C@H](O)CO)cc3s2)CCS(=O)(=O)CC1)Cc1cc(F)c(F)cc1F.O=C(O)C(F)(F)F	> 50 µM
C[N+](C)(C)CCNC(=O)CCCCCOc1ccc2nc(C3(NC(=O)C[C@H](N)Cc4cc(F)c(F)cc4F)CCS(=O)(=O)CC3)sc2c1.O=C(O)C(F)(F)F.O=C([O-])C(F)(F)F	> 50 µM

System: not listed separately
Assay: Apparent permeability from basolateral to apical side in human Caco2 cells at 20 uM incubated for […] by LC-MS/MS analysis
Assay type: ADME, cell-based
Details: Caco-2

SMILES	Papp B→A at […], 20 µM
N[C@@H](CC(=O)NC1(c2nc3ccc(OCC(=O)NC[C@H](O)[C@@H](O)[C@@H](O)[C@H](O)CO)cc3s2)CCS(=O)(=O)CC1)Cc1cc(F)c(F)cc1F.O=C(O)C(F)(F)F	0.001 ×10⁻⁶ cm/s
C[N+](C)(C)CCNC(=O)CCCCCOc1ccc2nc(C3(NC(=O)C[C@H](N)Cc4cc(F)c(F)cc4F)CCS(=O)(=O)CC3)sc2c1.O=C(O)C(F)(F)F.O=C([O-])C(F)(F)F	0.11 ×10⁻⁶ cm/s

System: not listed separately
Assay: Apparent permeability from apical to basolateral side in human Caco2 cells at 20 uM incubated for […] by LC-MS/MS analysis
Assay type: ADME, cell-based
Details: Caco-2

SMILES	Papp A→B at […], 20 µM
N[C@@H](CC(=O)NC1(c2nc3ccc(OCC(=O)NC[C@H](O)[C@@H](O)[C@@H](O)[C@H](O)CO)cc3s2)CCS(=O)(=O)CC1)Cc1cc(F)c(F)cc1F.O=C(O)C(F)(F)F	0.02 ×10⁻⁶ cm/s
C[N+](C)(C)CCNC(=O)CCCCCOc1ccc2nc(C3(NC(=O)C[C@H](N)Cc4cc(F)c(F)cc4F)CCS(=O)(=O)CC3)sc2c1.O=C(O)C(F)(F)F.O=C([O-])C(F)(F)F	0.02 ×10⁻⁶ cm/s

System: not listed separately
Assay: Solubility in pH 7.4 buffer by nephelometry
Assay type: physicochemical
Details: not given

SMILES	solubility kinetic
N[C@@H](CC(=O)NC1(c2nc3ccc(OCC(=O)NC[C@H](O)[C@@H](O)[C@@H](O)[C@H](O)CO)cc3s2)CCS(=O)(=O)CC1)Cc1cc(F)c(F)cc1F.O=C(O)C(F)(F)F	> 50 µM
C[N+](C)(C)CCNC(=O)CCCCCOc1ccc2nc(C3(NC(=O)C[C@H](N)Cc4cc(F)c(F)cc4F)CCS(=O)(=O)CC3)sc2c1.O=C(O)C(F)(F)F.O=C([O-])C(F)(F)F	> 50 µM

System: not listed separately
Assay: Stability in mouse intestinal S9 fractions assessed as phase I and phase II enzymes-mediated generation of systemic metabolites at 0.1 uM incubated at 37 degC for 10 mins by LC-MS/MS analysis
Assay type: ADME, subcellular, Intestine, S9 fraction
Details: s9, 10 min

Stability	SMILES
Unstable	O=c1ccc2ccc(O)cc2o1 [UMBELLIFERONE]
